This is an account of results in US20260077071A1, “Targeted Delivery of Theranostic Agents” (Peter MacCallum Cancer Institute, priority 2022, published 2026).

This assay addresses T1, human full-length CCK-2 receptor (Homo sapiens, UniProt P32239).
T1 construct: stably transfected to over-express the human full-length CCK-2 receptor (A431-CCK-2R); expressed in transfected cells
T1 sequence (P32239 1-447): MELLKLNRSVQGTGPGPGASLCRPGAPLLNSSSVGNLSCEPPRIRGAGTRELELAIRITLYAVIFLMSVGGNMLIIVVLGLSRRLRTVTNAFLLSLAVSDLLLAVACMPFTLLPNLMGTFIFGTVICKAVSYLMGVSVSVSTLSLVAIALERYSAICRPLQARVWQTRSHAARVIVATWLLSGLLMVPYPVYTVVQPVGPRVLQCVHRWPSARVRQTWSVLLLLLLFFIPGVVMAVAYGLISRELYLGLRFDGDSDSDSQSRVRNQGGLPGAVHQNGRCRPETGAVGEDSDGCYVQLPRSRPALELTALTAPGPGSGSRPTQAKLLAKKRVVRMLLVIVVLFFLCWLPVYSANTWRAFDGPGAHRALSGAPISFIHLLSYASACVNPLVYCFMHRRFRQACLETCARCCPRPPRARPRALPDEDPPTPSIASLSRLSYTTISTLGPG
Kind of assay: Competitive ligand binding against [^177Lu]Lu-DOTA-CP04 in A431-CCK-2R cells. As to conditions: for IC50: read-out: IC50. The procedure: CCK-2 receptor binding experiments were conducted using A431 (human epidermoid carcinoma) cells stably transfected to over-express the human full-length CCK-2 receptor (A431-CCK-2R). As a negative control, A431 cells stably transfected with an empty vector were analysed simultaneously (A431-EV). A431 cells were maintained in DMEM (Gibco, Australia) media supplemented with 10% foetal calf serum and 250 μg/mL G418 as described previously (Aloj L, et al., J Nucl Med., 2004, Mar; 45(3), 485-94). The affinity of peptides for the CCK-2R was evaluated using competitive binding assays against [^177Lu]Lu-DOTA-CP04 in A431-CCK-2R cells. Briefly, 48 h before the experiment cells were plated at a density of 650,000 cells per well in 6 well plates. On the day of the experiment the peptides were diluted in DMEM supplemented with 1% foetal calf serum to at least 7 different concentrations (0-400 nM) and approximately 50,000 cpm of [^177Lu]Lu-DOTA-CP04 was added to each dilution. Cells were washed twice in ice-cold binding buffer (DMEM supplemented with 1% foetal calf serum) and resuspended in 1.5 mL of the pre-prepared compound mix before being incubated at 37° C. for 1 h. Post-incubation the media was removed and kept for analysis (unbound fraction) and the cells were washed twice in ice-cold binding buffer, which was pooled with the unbound fraction. Finally, 1 M NaOH was added to the cells and allowed to incubate for 5 min before lysates were collected (bound fraction). A small volume of lysate was kept aside to determine protein concentration using the Pierce® BCA protein assay kit (Thermo Fisher, Australia). All samples were analysed using the Perkin Elmer 2480 Wizard2™ gamma counter (PerkinElmer, Massachusetts, USA) and were normalised according to protein concentration. Half-maximal inhibitory concentrations (IC50) were determined using nonlinear regression calculated using GraphPad Prism Software (GraphPad Software, California, USA).
The compounds were evaluated for their ability to disrupt the binding between CCK-2 receptor (CCK-2R) and [^177Lu]Lu-DOTA-CP04 using the methodology described above and compared to comparative example-2 (FIG. 2; Table 5).

The mark [1] stands for this setting: substituted-phenylalanine peptides based on Cmp ex-1 (Table 3).
Setting [2] is: D-Ala substituted peptides (Table 2), against [^177Lu]Lu-DOTA-CP04 in A431-CCK-2R cells.
Where [3] appears, read: ^natGa chelated DOTA-compounds based on Peptide C (Table 5).
[4] abbreviates: modified peptides based on Peptide C (Table 4).

Each structure is given as a SMILES string. Where two headings read alike, the source gives them in different places. Square brackets hold non-standard residues; d marks the D form. Peptide text beside a SMILES is read from it. * marks the point of attachment. DOTA = O=C(O)CN1CCN(CC(=O)O)CCN(CC(=O)*)CCN(CC(=O)O)CC1; Phe(3,4,5-F3) = N[C@@H](Cc1cc(F)c(F)c(F)c1)C(=O)O; Phe(4-CF3) = N[C@@H](Cc1ccc(C(F)(F)F)cc1)C(=O)O; Phe(F5) = N[C@@H](Cc1c(F)c(F)c(F)c(F)c1F)C(=O)O; Phe(3,4-F2) = N[C@@H](Cc1ccc(F)c(F)c1)C(=O)O; NMe1Nal = CN[C@@H](Cc1cccc2ccccc12)C(=O)O; Phe(4-CN) = N#Cc1ccc(C[C@H](N)C(=O)O)cc1; Phe(4-NH2) = Nc1ccc(C[C@H](N)C(=O)O)cc1; 1Nal = N[C@@H](Cc1cccc2ccccc12)C(=O)O; 2Nal = N[C@@H](Cc1ccc2ccccc2c1)C(=O)O; NMeF = CN[C@@H](Cc1ccccc1)C(=O)O; NMeNle = CCCC[C@H](NC)C(=O)O; Sar = CNCC(=O)O

As a reminder, the IC50 is the concentration needed to halve the response being measured. Turning to `CCCC[C@@H](C(=O)N[C@@H](CC(=O)O)C(=O)N[C@@H](Cc1cc(F)c(F)c(F)c1)C(N)=O)N(C)C(=O)[C@H](Cc1c[nH]c2ccccc12)NC(=O)CN(C)C(=O)[C@H](Cc1ccc(O)cc1)NC(=O)[C@H](C)NC(=O)[C@@H](CCC(=O)O)NC(=O)[C@@H](CCC(=O)O)NC(=O)[C@@H](CCC(=O)O)NC(=O)[C@@H](CCC(=O)O)NC(=O)[C@@H](CCC(=O)O)NC(=O)[C@H](N)CCC(=O)O` [I] (H-[dE][dE][dE][dE][dE][dE]AY[Sar]W[NMeNle]D[Phe(3,4,5-F3)]-NH2), under setting [1], the half-inhibitory concentration (IC50) is 0.26 nM.

`CSCC[C@H](NC(=O)[C@H](Cc1c[nH]c2ccccc12)NC(=O)CNC(=O)[C@H](Cc1ccc(O)cc1)NC(=O)[C@H](C)NC(=O)[C@@H](CCC(=O)O)NC(=O)[C@@H](CCC(=O)O)NC(=O)[C@@H](CCC(=O)O)NC(=O)[C@@H](CCC(=O)O)NC(=O)[C@@H](CCC(=O)O)NC(=O)[C@@H](CCC(=O)O)NC(=O)CN1CCN(CC(=O)O)CCN(CC(=O)O)CCN(CC(=O)O)CC1)C(=O)N[C@@H](CC(=O)O)C(=O)N[C@@H](Cc1ccccc1)C(N)=O` [CP04, reference compound]: for the setting “free peptide versus its linker/metal-complex (DOTA) form”, the “decrease in affinity for the CCK-2 receptor” value is given as “greater than 3 fold”.

As for `CCCC[C@@H](C(=O)N[C@@H](CC(=O)O)C(=O)N[C@@H](Cc1ccc2ccccc2c1)C(N)=O)N(C)C(=O)[C@H](Cc1c[nH]c2ccccc12)NC(=O)CN(C)C(=O)[C@H](Cc1ccc(O)cc1)NC(=O)[C@H](C)NC(=O)[C@@H](CCC(=O)O)NC(=O)[C@@H](CCC(=O)O)NC(=O)[C@@H](CCC(=O)O)NC(=O)[C@@H](CCC(=O)O)NC(=O)[C@@H](CCC(=O)O)NC(=O)[C@H](N)CCC(=O)O` [L] (H-[dE][dE][dE][dE][dE][dE]AY[Sar]W[NMeNle]D[2Nal]-NH2; N-terminus assumed), the concentration for half-maximal inhibition (IC50) under setting [1] was 0.6 nM.

With `CCCC[C@@H](C(=O)N[C@@H](CC(=O)O)C(=O)N[C@@H](Cc1cccc2ccccc12)C(N)=O)N(C)C(=O)[C@H](Cc1c[nH]c2ccccc12)NC(=O)CN(C)C(=O)[C@H](Cc1ccc(O)cc1)NC(=O)[C@H](C)NC(=O)[C@@H](CCC(=O)O)NC(=O)[C@@H](CCC(=O)O)NC(=O)[C@@H](CCC(=O)O)NC(=O)[C@@H](CCC(=O)O)NC(=O)[C@@H](C)NC(=O)[C@H](N)CCC(=O)O` [B] (H-[dE][dA][dE][dE][dE][dE]AY[Sar]W[NMeNle]D[1Nal]-NH2), the “loss of binding affinity / activity” value (D-Ala analogue versus baseline comparative example-1) is “approx. 5 fold”. Also, under setting [2], the IC50 amounted to 1.23 nM.

In the case of `CCCC[C@@H](C(=O)N[C@@H](CC(=O)O)C(=O)N(C)[C@@H](Cc1ccccc1)C(N)=O)N(C)C(=O)[C@H](Cc1c[nH]c2ccccc12)NC(=O)CN(C)C(=O)[C@H](Cc1ccc(O)cc1)NC(=O)[C@H](C)NC(=O)[C@@H](CCC(=O)O)NC(=O)[C@@H](CCC(=O)O)NC(=O)[C@@H](CCC(=O)O)NC(=O)[C@@H](C)NC(=O)[C@@H](CCC(=O)O)NC(=O)[C@@H](CCC(=O)O)NC(=O)CN1CCN(CC(=O)O)CCN(CC(=O)O)CCN(CC(=O)O)CC1` [^natGa-2, metal not drawn] ({DOTA}-[dE][dE][dA][dE][dE][dE]AY[Sar]W[NMeNle]D[NMeF]-NH2), the IC50 under setting [3] amounted to 0.185 nM.

Turning to `CCCC[C@@H](C(=O)N[C@@H](CC(=O)O)C(=O)N[C@@H](Cc1ccc(C(F)(F)F)cc1)C(N)=O)N(C)C(=O)[C@H](Cc1c[nH]c2ccccc12)NC(=O)CN(C)C(=O)[C@H](Cc1ccc(O)cc1)NC(=O)[C@H](C)NC(=O)[C@@H](CCC(=O)O)NC(=O)[C@@H](CCC(=O)O)NC(=O)[C@@H](CCC(=O)O)NC(=O)[C@@H](C)NC(=O)[C@@H](CCC(=O)O)NC(=O)[C@H](N)CCC(=O)O` [P] (H-[dE][dE][dA][dE][dE][dE]AY[Sar]W[NMeNle]D[Phe(4-CF3)]-NH2; N-terminus assumed), under setting [4], the IC50 was found to be 1.14 nM.

For the compound `CCCC[C@@H](C(=O)N[C@@H](CC(=O)O)C(=O)N(C)[C@@H](Cc1cccc2ccccc12)C(N)=O)N(C)C(=O)[C@H](Cc1c[nH]c2ccccc12)NC(=O)CN(C)C(=O)[C@H](Cc1ccc(O)cc1)NC(=O)[C@H](C)NC(=O)[C@@H](CCC(=O)O)NC(=O)[C@@H](CCC(=O)O)NC(=O)[C@@H](CCC(=O)O)NC(=O)[C@@H](C)NC(=O)[C@@H](CCC(=O)O)NC(=O)[C@@H](CCC(=O)O)NC(=O)CN1CCN(CC(=O)O)CCN(CC(=O)O)CCN(CC(=O)O)CC1` [^natGa-4, metal not drawn] ({DOTA}-[dE][dE][dA][dE][dE][dE]AY[Sar]W[NMeNle]D[NMe1Nal]-NH2), the IC50 under setting [3] was determined as 0.096 nM.

Turning to `CCCC[C@@H](C(=O)N[C@@H](CC(=O)O)C(=O)N[C@@H](Cc1ccc(C#N)cc1)C(N)=O)N(C)C(=O)[C@H](Cc1c[nH]c2ccccc12)NC(=O)CN(C)C(=O)[C@H](Cc1ccc(O)cc1)NC(=O)[C@H](C)NC(=O)[C@@H](CCC(=O)O)NC(=O)[C@@H](CCC(=O)O)NC(=O)[C@@H](CCC(=O)O)NC(=O)[C@@H](C)NC(=O)[C@@H](CCC(=O)O)NC(=O)[C@H](N)CCC(=O)O` [Q] (H-[dE][dE][dA][dE][dE][dE]AY[Sar]W[NMeNle]D[Phe(4-CN)]-NH2; N-terminus assumed), the IC50 under setting [4] was determined as 1.57 ± 0.089 nM.

Consider `CCCC[C@@H](C(=O)N[C@@H](CC(=O)O)C(=O)N[C@@H](Cc1ccc(F)c(F)c1)C(N)=O)N(C)C(=O)[C@H](Cc1c[nH]c2ccccc12)NC(=O)CN(C)C(=O)[C@H](Cc1ccc(O)cc1)NC(=O)[C@H](C)NC(=O)[C@@H](CCC(=O)O)NC(=O)[C@@H](CCC(=O)O)NC(=O)[C@@H](CCC(=O)O)NC(=O)[C@@H](CCC(=O)O)NC(=O)[C@@H](CCC(=O)O)NC(=O)[C@H](N)CCC(=O)O` [H] (H-[dE][dE][dE][dE][dE][dE]AY[Sar]W[NMeNle]D[Phe(3,4-F2)]-NH2), for which the IC50 under setting [1] came out at 0.64 nM.

For `CCCC[C@@H](C(=O)N[C@@H](CC(=O)O)C(=O)N[C@@H](Cc1cccc2ccccc12)C(N)=O)N(C)C(=O)[C@H](Cc1c[nH]c2ccccc12)NC(=O)CN(C)C(=O)[C@H](Cc1ccc(O)cc1)NC(=O)[C@H](C)NC(=O)[C@@H](CCC(=O)O)NC(=O)[C@@H](CCC(=O)O)NC(=O)[C@@H](CCC(=O)O)NC(=O)[C@@H](C)NC(=O)[C@@H](CCC(=O)O)NC(=O)[C@H](N)CCC(=O)O` [Peptide C] (H-[dE][dE][dA][dE][dE][dE]AY[Sar]W[NMeNle]D[1Nal]-NH2), under setting [2], the IC50 came to 0.18 nM. Under “versus CP04”, the “improvement upon the activity of CP04” value is given as “greater than 10 fold”. Besides, for the setting “versus comparative example-1”, the “affinity exceeding that of the comparative peptide” value was about 2 fold.

With `CCCC[C@@H](C(=O)N[C@@H](CC(=O)O)C(=O)N[C@@H](Cc1ccc(N)cc1)C(N)=O)N(C)C(=O)[C@H](Cc1c[nH]c2ccccc12)NC(=O)CN(C)C(=O)[C@H](Cc1ccc(O)cc1)NC(=O)[C@H](C)NC(=O)[C@@H](CCC(=O)O)NC(=O)[C@@H](CCC(=O)O)NC(=O)[C@@H](CCC(=O)O)NC(=O)[C@@H](CCC(=O)O)NC(=O)[C@@H](CCC(=O)O)NC(=O)[C@H](N)CCC(=O)O` [K] (H-[dE][dE][dE][dE][dE][dE]AY[Sar]W[NMeNle]D[Phe(4-NH2)]-NH2; N-terminus assumed), the half-maximal inhibitory concentration (IC50) under setting [1] amounted to 0.52 nM.

Regarding `CCCC[C@@H](C(=O)N[C@@H](CC(=O)O)C(=O)N[C@@H](Cc1c(F)c(F)c(F)c(F)c1F)C(N)=O)N(C)C(=O)[C@H](Cc1c[nH]c2ccccc12)NC(=O)CN(C)C(=O)[C@H](Cc1ccc(O)cc1)NC(=O)[C@H](C)NC(=O)[C@@H](CCC(=O)O)NC(=O)[C@@H](CCC(=O)O)NC(=O)[C@@H](CCC(=O)O)NC(=O)[C@@H](C)NC(=O)[C@@H](CCC(=O)O)NC(=O)[C@H](N)CCC(=O)O` [T] (H-[dE][dE][dA][dE][dE][dE]AY[Sar]W[NMeNle]D[Phe(F5)]-NH2; N-terminus assumed), the half-maximal inhibitory concentration (IC50) under setting [4] stood at 0.607 ± 0.052 nM.
